Reference: PMC9768162, “Synthesis of macrocyclic nucleoside antibacterials and their interactions with MraY” (Nature Communications, 2022)
Read-outs that look alike come from different tables or passages of the source.

Tests used:
Experiment in all cases: Antibacterial activity, MIC by microdilution broth method (CLSI)
E. faecium = type: cell-based, Enterococcus faecium
S. aureus = type: cell-based, Staphylococcus aureus; settings: for MIC: Staphylococcus aureus; for MIC (range over strains): clinically isolated MRSA (10 strains)
E. faecalis = type: cell-based; settings: for MIC: Enterococcus faecalis; for MIC (range over strains): clinically isolated E. faecalis (15 strains)
[1] = Enterococcus faecium, ATCC35667, 20 h, E. faecium ATCC 35667, CA-MHB, 37 °C, 20 h, read-out: MIC
[2] = Enterococcus faecium, clinically isolated E. faecium strain 7, read-out: MIC
[3] = ATCC29213, 20 h, S. aureus ATCC 29213, CA-MHB, 37 °C, 20 h
[4] = MRSA, 20 h, S. aureus (MRSA) JE2, CA-MHB, 37 °C, performed once
[5] = MRSA, clinically isolated MRSA #1958
[6] = MRSA, clinically isolated MRSA #2071
[7] = MRSA, clinically isolated MRSA #2110
[8] = MRSA, clinically isolated MRSA #2310
[9] = MRSA, clinically isolated MRSA #2334
[10] = MRSA, clinically isolated MRSA #2931
[11] = MRSA, clinically isolated MRSA #2932
[12] = MRSA, clinically isolated MRSA #2933
[13] = MRSA, clinically isolated MRSA #2934
[14] = MRSA, clinically isolated MRSA #2935
[15] = ATCC 51299 / VRE, E. faecalis (VRE) ATCC 51299
[16] = clinically isolated E. faecalis strain 21
[17] = clinically isolated E. faecalis strain 22
[18] = clinically isolated E. faecalis strain 23
[19] = clinically isolated E. faecalis strain 24
[20] = clinically isolated E. faecalis strain 25
[21] = clinically isolated E. faecalis strain 26
[22] = clinically isolated E. faecalis strain 27
[23] = clinically isolated E. faecalis strain 28
[24] = clinically isolated E. faecalis strain 29
[25] = clinically isolated E. faecalis strain 30
[26] = clinically isolated E. faecalis strain 31
[27] = clinically isolated E. faecalis strain 32
[28] = clinically isolated E. faecalis strain 33
[29] = clinically isolated E. faecalis strain 34
[30] = clinically isolated E. faecalis strain 35
[31] = Enterococcus faecium, ATCC 51559 / VRE, E. faecium (VRE) ATCC 51559, read-out: MIC
[32] = Enterococcus faecium, ATCC 51858 / VRE, E. faecium (VRE) ATCC 51858, read-out: MIC
[33] = Enterococcus faecium, clinically isolated E. faecium strain 1, read-out: MIC
[34] = Enterococcus faecium, clinically isolated E. faecium strain 2, read-out: MIC
[35] = Enterococcus faecium, clinically isolated E. faecium strain 3, read-out: MIC
[36] = Enterococcus faecium, clinically isolated E. faecium strain 4, read-out: MIC
[37] = Enterococcus faecium, clinically isolated E. faecium strain 5, read-out: MIC
[38] = Enterococcus faecium, clinically isolated E. faecium strain 8, read-out: MIC
[39] = Enterococcus faecium, clinically isolated E. faecium strain 9, read-out: MIC
[40] = Enterococcus faecium, clinically isolated E. faecium strain 10, read-out: MIC
[41] = Enterococcus faecium, clinically isolated E. faecium strain 11, read-out: MIC
[42] = Enterococcus faecium, clinically isolated E. faecium strain 13, read-out: MIC
[43] = Enterococcus faecium, clinically isolated E. faecium strain 14, read-out: MIC
[44] = Enterococcus faecium, clinically isolated E. faecium strain 15, read-out: MIC

CC1(C)S[C@@H]2[C@H](NC(=O)[C@H](N)c3ccccc3)C(=O)N2[C@H]1C(=O)O [Ampicillin]
1 µg/mL: MIC (E. faecium; [1]) | MIC (S. aureus; [3]) | MIC (E. faecalis; [15]) | MIC (E. faecalis; [16]) | MIC (E. faecalis; [17]) | MIC (E. faecalis; [18]) | MIC (E. faecalis; [20]) | MIC (E. faecalis; [21]) | MIC (E. faecalis; [22]) | MIC (E. faecalis; [23]) | MIC (E. faecalis; [24]) | MIC (E. faecalis; [26]) | MIC (E. faecalis; [27]) | MIC (E. faecalis; [28]) | MIC (E. faecalis; [29])
> 128 µg/mL: MIC (E. faecium; Enterococcus faecium, clinically isolated E. faecium strain 1) | MIC (E. faecium; Enterococcus faecium, clinically isolated E. faecium strain 3) | MIC (E. faecium; Enterococcus faecium, clinically isolated E. faecium strain 9) | MIC (E. faecium; Enterococcus faecium, clinically isolated E. faecium strain 10) | MIC (E. faecium; Enterococcus faecium, clinically isolated E. faecium strain 13)
16 to 32 µg/mL: MIC (range over strains) (S. aureus)
0.5 to 1 µg/mL: MIC (range over strains) (E. faecalis)
128 µg/mL: MIC (E. faecium; Enterococcus faecium, ATCC 51559 / VRE, E. faecium (VRE) ATCC 51559) | MIC (E. faecium; Enterococcus faecium, ATCC 51858 / VRE, E. faecium (VRE) ATCC 51858) | MIC (E. faecium; Enterococcus faecium, clinically isolated E. faecium strain 2) | MIC (E. faecium; Enterococcus faecium, clinically isolated E. faecium strain 4) | MIC (E. faecium; Enterococcus faecium, clinically isolated E. faecium strain 5) | MIC (E. faecium; Enterococcus faecium, clinically isolated E. faecium strain 8) | MIC (E. faecium; Enterococcus faecium, clinically isolated E. faecium strain 11) | MIC (E. faecium; Enterococcus faecium, clinically isolated E. faecium strain 14) | MIC (E. faecium; Enterococcus faecium, clinically isolated E. faecium strain 15)
0.5 µg/mL: MIC (E. faecium; [2]) | MIC (E. faecalis; [19]) | MIC (E. faecalis; [25]) | MIC (E. faecalis; [30])
16 µg/mL: MIC (S. aureus; [7]) | MIC (S. aureus; [9]) | MIC (S. aureus; [13]) | MIC (S. aureus; [14])
32 µg/mL: MIC (S. aureus; [5]) | MIC (S. aureus; [6]) | MIC (S. aureus; [8]) | MIC (S. aureus; [10]) | MIC (S. aureus; [11]) | MIC (S. aureus; [12])
4 µg/mL: MIC (S. aureus; [4])

CN[C@H](CC(C)C)C(=O)N[C@H]1C(=O)N[C@@H](CC(N)=O)C(=O)N[C@H]2C(=O)N[C@H]3C(=O)N[C@H](C(=O)N[C@H](C(=O)O)c4cc(O)cc(O)c4-c4cc3ccc4O)[C@H](O)c3ccc(c(Cl)c3)Oc3cc2cc(c3O[C@@H]2O[C@H](CO)[C@@H](O)[C@H](O)[C@H]2O[C@H]2C[C@](C)(N)[C@H](O)[C@H](C)O2)Oc2ccc(cc2Cl)[C@H]1O [Vancomycin]
0.5 to 1 µg/mL: MIC (range over strains) (E. faecium; clinically isolated E. faecium (14 strains))
>128 µg/mL: MIC (E. faecium; E. faecium (VRE) ATCC 51559)
1 to 4 µg/mL: MIC (range over strains) (E. faecalis)
1 µg/mL: MIC (E. faecium; [33]) | MIC (E. faecium; [34]) | MIC (E. faecium; [35]) | MIC (E. faecium; [36]) | MIC (E. faecium; [37]) | MIC (E. faecium; [38]) | MIC (E. faecium; [39]) | MIC (E. faecium; [40]) | MIC (E. faecium; [41]) | MIC (E. faecium; [42]) | MIC (E. faecium; [44]) | MIC (S. aureus; [3]) | MIC (S. aureus; [4]) | MIC (S. aureus; [5]) | MIC (S. aureus; [6]) | MIC (S. aureus; [10]) | MIC (S. aureus; [12]) | MIC (S. aureus; [13]) | MIC (E. faecalis; [16]) | MIC (E. faecalis; [17]) | MIC (E. faecalis; [18]) | MIC (E. faecalis; [19]) | MIC (E. faecalis; [20]) | MIC (E. faecalis; [21]) | MIC (E. faecalis; [22]) | MIC (E. faecalis; [23]) | MIC (E. faecalis; [24]) | MIC (E. faecalis; [25]) | MIC (E. faecalis; [27]) | MIC (E. faecalis; [29]) | MIC (E. faecalis; [30])
128 µg/mL: MIC (E. faecium; [32]) | MIC (E. faecalis; [15])
2 µg/mL: MIC (S. aureus; [7]) | MIC (S. aureus; [8]) | MIC (S. aureus; [9]) | MIC (S. aureus; [11]) | MIC (S. aureus; [14]) | MIC (E. faecalis; [28])
> 128 µg/mL: MIC (E. faecium; [31])
0.5 µg/mL: MIC (E. faecium; [1]) | MIC (E. faecium; [2]) | MIC (E. faecium; [43])
4 µg/mL: MIC (E. faecalis; [26])
1 to 2 µg/mL: MIC (range over strains) (S. aureus)

C[C@H]1COc2c(N3CCN(C)CC3)c(F)cc3c(=O)c(C(=O)O)cn1c23 [Levofloxacin]
> 32 µg/mL: MIC (E. faecium; [33]) | MIC (E. faecium; [34]) | MIC (E. faecium; [35]) | MIC (E. faecium; [36]) | MIC (E. faecium; [38]) | MIC (E. faecium; [39]) | MIC (E. faecium; [40]) | MIC (E. faecium; [41]) | MIC (E. faecium; [42]) | MIC (E. faecium; [43]) | MIC (E. faecium; [44]) | MIC (S. aureus; [5]) | MIC (S. aureus; [7]) | MIC (S. aureus; [8]) | MIC (S. aureus; [9]) | MIC (S. aureus; [11]) | MIC (S. aureus; [12]) | MIC (S. aureus; [13]) | MIC (S. aureus; [14])
1 µg/mL: MIC (E. faecalis; [15]) | MIC (E. faecalis; [17]) | MIC (E. faecalis; [18]) | MIC (E. faecalis; [19]) | MIC (E. faecalis; [22]) | MIC (E. faecalis; [23]) | MIC (E. faecalis; [25]) | MIC (E. faecalis; [26]) | MIC (E. faecalis; [27]) | MIC (E. faecalis; [28]) | MIC (E. faecalis; [29])
8 µg/mL: MIC (S. aureus; [4])
0.5 µg/mL: MIC (E. faecium; [2]) | MIC (E. faecalis; [16]) | MIC (E. faecalis; [20]) | MIC (E. faecalis; [21]) | MIC (E. faecalis; [24])
2 µg/mL: MIC (E. faecalis; [30])
4 µg/mL: MIC (E. faecium; [1]) | MIC (E. faecium; [32])
0.5 to 2 µg/mL: MIC (range over strains) (E. faecalis)
0.13 µg/mL: MIC (S. aureus; [3]) | MIC (S. aureus; [6])
32 µg/mL: MIC (E. faecium; [37])
16 µg/mL: MIC (E. faecium; [31]) | MIC (S. aureus; [10])
